Where two headings read alike, the source gives them in different places. Where a SMILES comes first, the peptide text is derived from it. Bridges are numbered along the chain shown (N, C = ends). Roman numbers before positions name the chains, in order. [ ]: non-standard residue; d: D form. The star is where a group is joined. X2 = CN(C)C(=N[C@@H](Cc1c[nH]c2ccccc12)C(=O)*)N(C)C; Tle = CC(C)(C)[C@H](N)C(=O)O; dDab = NCC[C@@H](N)C(=O)O; Nle = CCCC[C@H](N)C(=O)O; Orn = NCCC[C@H](N)C(=O)O; Dab = NCC[C@H](N)C(=O)O; dAze = O=C(O)[C@H]1CCN1; Dap = NC[C@H](N)C(=O)O
Key:
Format in all cases: cell-based
[1] = system: Acinetobacter baumannii DSM 30008
Procedure, shortened: (§1)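 Read-out is the minimal inhibitory concentration in μg/mL, taken as the lowest peptide level without visible growth after 18-20 h at 35° C. Testing followed CLSI broth microdilution in cation-adjusted Mueller-Hinton II broth plus 0.002% Polysorbate 80, with roughly 10^6 CFU/mL.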

[2] = system: Escherichia coli ATCC 25922
Procedure, shortened: as §1

[3] = system: Acinetobacter baumannii 872842
[4] = system: Klebsiella pneumoniae SSI #3010
Procedure, shortened: as §1

[5] = system: Pseudomonas aeruginosa ATCC 27853
Procedure, shortened: as §1

[6] = system: Klebsiella pneumoniae 968733
[7] = system: Escherichia coli 926415
[8] = system: human red blood cells (hRBC); test: Hemolysis of human red blood cells
Procedure, shortened: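 Washed fresh human erythrocytes (20% v/v, ~0.9×10^9 cells/mL final) were incubated with peptides at 100 μg/mL for 1 h at 37 °C with shaking. Supernatant OD540 measured; hemolysis expressed as % of 2.5% Triton X-100 lysis, with PBS/0.001% acetic acid as 0%.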

[9] = red cells of human, 1 h, 100 μg/mL
[10] = clinical isolate, Mueller-Hinton II broth, P-80 0.002% present

| Structure (SMILES) | Acinetobacter baumannii DSM 30008 MIC ([1]; DSM 30008) [µg/mL] | Escherichia coli ATCC 25922 MIC ([2]; ATCC 25922) [µg/mL] | Acinetobacter baumannii 872842 MIC [3]; 872842 [µg/mL] | Klebsiella pneumoniae SSI #3010 MIC ([4]; SSI #3010) [µg/mL] | Pseudomonas aeruginosa ATCC 27853 MIC ([5]; ATCC 27853) [µg/mL] | Klebsiella pneumoniae 968733 MIC [6]; 968733 [µg/mL] | Escherichia coli 926415 MIC [7]; 926415 [µg/mL] | Hemolysis at 100 μg/mL [8, 9] [%] | Hemolysis at 100 μg/mL ([8]; red cells of human, 1 h, 100) [%] | Acinetobacter baumannii DSM 30008 MIC ([1]; Mueller-Hinton II broth) [µg/mL] | Escherichia coli ATCC 25922 MIC ([2]; Mueller-Hinton II broth) [µg/mL] | Acinetobacter baumannii 872842 MIC [3, 10] [µg/mL] | Klebsiella pneumoniae SSI #3010 MIC ([4]; Mueller-Hinton II broth) [µg/mL] | Pseudomonas aeruginosa ATCC 27853 MIC ([5]; Mueller-Hinton II broth) [µg/mL] | Klebsiella pneumoniae 968733 MIC [6, 10] [µg/mL] | Escherichia coli 926415 MIC [7, 10] [µg/mL] | Hemolysis at 100 μg/mL ([8]; 100 μg/mL, 20% hRBC, 1 h at 37° C.) [%] |
| --- | --- | --- | --- | --- | --- | --- | --- | --- | --- | --- | --- | --- | --- | --- | --- | --- | --- |
| CC(C)C[C@@H]1NC(=O)[C@@H](CC(C)C)NC(=O)[C@H](CCN)NC(=O)[C@@H](NC(=O)[C@H](CCN)NC(=O)[C@@H](NC(=O)[C@H](CCN)NC(=O)CNC(=O)[C@@H]2CSSC[C@H](NC(=O)[C@H](Cc3c[nH]c4ccccc34)N=C(N(C)C)N(C)C)C(=O)N[C@@H](C(C)C)C(=O)N[C@@H](C)C(=O)N[C@@H](CO)C(=O)N3CCC[C@@H]3C(=O)N3CCC[C@H]3C(=O)N[C@@H](CC(C)C)C(=O)N[C@@H](CO)C(=O)N[C@@H](Cc3ccc(O)cc3)C(=O)N2)[C@@H](C)O)CCNC(=O)[C@H]([C@@H](C)O)NC(=O)[C@H](CCN)NC(=O)[C@H](CCN)NC1=O [Ex. 133] (X2-CVAS[dP]PLSYCG[Dab]T[Dab][Dab][Dab][dL]L[Dab][Dab]T; disulfide 1-10; lactam 15-C) | 1 | 0.25 | 4 | 1 | 1 | 8 | 4 | <1 | – | – | – | – | – | – | – | – | – |
| CCCC[C@@H]1NC(=O)[C@@H]2CCCN2C(=O)[C@H]2CCCN2C(=O)[C@H](CO)NC(=O)[C@H](C)NC(=O)[C@H](C(C)(C)C)NC(=O)[C@H](CCN)NC(=O)[C@H](Cc2c[nH]c3ccccc23)NC(=O)[C@H](CCN)NC(=O)[C@H](CCC(=O)N[C@@H](CCN)C(=O)N[C@H](CCN)C(=O)N[C@H]2CCNC(=O)[C@H]([C@@H](C)O)NC(=O)[C@H](CCN)NC(=O)[C@H](CCN)NC(=O)[C@H](CC(C)C)NC(=O)[C@@H](Cc3ccccc3)NC(=O)[C@H](CCN)NC2=O)NC(=O)[C@H](CCCN)NC(=O)[C@H](CCN)NC(=O)[C@H](Cc2ccc(O)cc2)NC(=O)[C@H](CO)NC1=O [Ex. 74] (I: cyclo([Nle]SY[Dab][Orn]E[Dab]W[Dab][Tle]AS[dP]P) / II: [Dab][dDab][Dab][Dab][dF]L[Dab][Dab]T; amide I:6-II:N; lactam II:3-II:C) | 1 | 2 | 4 | 1 | 1 | 2 | 1 | – | 2 | – | – | – | – | – | – | – | – |
| CCCC[C@@H]1NC(=O)[C@@H]2CCCN2C(=O)[C@H]2CCCN2C(=O)[C@H](CO)NC(=O)[C@H](C)NC(=O)[C@H](C(C)(C)C)NC(=O)[C@@H](NC(=O)[C@H](Cc2c[nH]c3ccccc23)NC(C)=O)CSSC[C@@H](C(=O)N[C@@H](CCCN)C(=O)N[C@@H](CCN)C(=O)N[C@H]2CCNC(=O)[C@H]([C@@H](C)O)NC(=O)[C@H](CCN)NC(=O)[C@H](CCN)NC(=O)[C@H](CC(C)C)NC(=O)[C@@H](Cc3ccccc3)NC(=O)[C@H](CCN)NC2=O)NC(=O)[C@H](Cc2ccc(O)cc2)NC(=O)[C@H](CN)NC1=O [Ex. 46] (Ac-WC[Tle]AS[dP]P[Nle][Dap]YC[Orn][Dab][Dab][Dab][dF]L[Dab][Dab]T; disulfide 2-11; lactam 14-C) | 0.25 | 0.125 | 0.5 | 0.25 | 2 | 2 | 0.5 | <1 | – | – | – | – | – | – | – | – | – |
| CCCC[C@@H]1NC(=O)[C@@H]2CCCN2C(=O)[C@H]2CCCN2C(=O)[C@H]([C@@H](C)O)NC(=O)[C@H](CO)NC(=O)[C@H](C(C)(C)C)NC(=O)[C@@H](NC(=O)[C@H](Cc2c[nH]c3ccccc23)NC(C)=O)CSSC[C@@H](C(=O)N[C@@H](CCN)C(=O)N[C@H](C(=O)N[C@@H](CCN)C(=O)N[C@H]2CCNC(=O)[C@H]([C@@H](C)O)NC(=O)[C@H](CCN)NC(=O)[C@H](CCN)NC(=O)[C@H](CC(C)C)NC(=O)[C@@H](Cc3ccccc3)NC(=O)[C@H](CCN)NC2=O)[C@@H](C)O)NC(=O)[C@H](Cc2ccc(O)cc2)NC(=O)[C@H](C)NC1=O [Ex. 18] (Ac-WC[Tle]ST[dP]P[Nle]AYC[Dab]T[Dab][Dab][Dab][dF]L[Dab][Dab]T; disulfide 2-11; lactam 15-C) | – | – | – | – | – | – | – | – | – | 0.25 | 0.125 | 1 | 2 | 0.5 | 0.5 | 0.5 | 6 |
| CC(C)C[C@@H]1NC(=O)[C@@H](CC(C)C)NC(=O)[C@H](CCN)NC(=O)[C@@H](NC(=O)[C@H](CCN)NC(=O)[C@H](CN)NC(=O)[C@@H]2CSSC[C@H](NC(=O)[C@@H](N)Cc3c[nH]c4ccccc34)C(=O)N[C@@H](C(C)(C)C)C(=O)N[C@@H](C)C(=O)N[C@@H]([C@@H](C)O)C(=O)N3CC[C@@H]3C(=O)N3CCC[C@H]3C(=O)N[C@@H](C(C)C)C(=O)N[C@@H](CO)C(=O)N[C@@H](Cc3ccc(O)cc3)C(=O)N2)CCNC(=O)[C@H]([C@@H](C)O)NC(=O)[C@H](CCN)NC(=O)[C@H](CCN)NC1=O [Ex. 189] (H-WC[Tle]AT[dAze]PVSYC[Dap][Dab][Dab][Dab][dL]L[Dab][Dab]T; disulfide 2-11; lactam 14-C) | 0.5 | 0.25 | 0.125 | 0.5 | 2 | 1 | 0.5 | 1 | – | – | – | – | – | – | – | – | – |
| CCCC[C@@H]1NC(=O)[C@@H]2CCCN2C(=O)[C@H]2CCCN2C(=O)[C@H](CO)NC(=O)[C@H](C)NC(=O)[C@H](C(C)(C)C)NC(=O)[C@@H](NC(=O)[C@H](Cc2c[nH]c3ccccc23)NC(=O)[C@H](CCN)NC(C)=O)CSSC[C@@H](C(=O)N[C@@H](CCCN)C(=O)N[C@H](C(=O)N[C@@H](CCN)C(=O)N[C@H]2CCNC(=O)[C@H]([C@@H](C)O)NC(=O)[C@H](CCN)NC(=O)[C@H](CCN)NC(=O)[C@H](CC(C)C)NC(=O)[C@@H](Cc3ccccc3)NC(=O)[C@H](CCN)NC2=O)[C@@H](C)O)NC(=O)[C@H](Cc2ccc(O)cc2)NC(=O)[C@H](CO)NC1=O [Ex. 36] (Ac-[Dab]WC[Tle]AS[dP]P[Nle]SYC[Orn]T[Dab][Dab][Dab][dF]L[Dab][Dab]T; disulfide 3-12; lactam 16-C) | 0.25 | 0.25 | 0.5 | 0.25 | 0.5 | 0.5 | 0.25 | <1 | – | – | – | – | – | – | – | – | – |
